Data: patent US8937080B2, “Pyrimidine substituted macrocyclic HCV inhibitors” (Medivir AB, priority 2007, dated 2015)
Where two headings read alike, the source gives them in different places.

Experiments:
[1] = rcm bond, 14-membered ring, Hoveyda-Grubbs II, DCE, 16.0 h
[2] = from C=CCCCCN(C)C(=O)C1CC(Oc2ccnc(-c3ccccc3)n2)CC1C(=O)NC1(C(=O)NS(=O)(=O)C2CC2)CC1C=C; rcm bond; 14-membered ring; Hoveyda-Grubbs II; 150.0 °C; 0.17 h
[3] = system: HCV replicons (wild type NS3-NS5B regions of HCV type 1b) in Huh-7 luc/neo cells; experiment: Replicon assay (Huh-Luc cells, luciferase readout); format: cell-based; settings: Hepatitis C virus, Huh-7, 72 h, incubation of three days, luciferase activity
Text: The compounds of formula (I) were examined for activity in the inhibition of HCV RNA replication in a cellular assay. […] The cellular assay was based on a bicistronic expression construct, as described by Lohmann et al. (1999) Science vol. 285 pp. 110-113 with modifications described by Krieger et al. (2001) Journal of Virology 75: 4614-4624, in a multi-target screening strategy. In essence, the method was as follows.
The assay utilized the stably transfected cell line Huh-7 luc/neo (hereafter referred to as Huh-Luc). This cell line harbors an RNA encoding a bicistronic expression construct comprising the wild type NS3-NS5B regions of HCV type 1b translated from an Internal Ribosome Entry Site (IRES) from encephalomyocarditis virus (EMCV), preceded by a reporter portion (FfL-luciferase), and a selectable marker portion (neo^R, neomycine phosphotransferase). The construct is bordered by 5′ and 3′ NTRs (non-translated regions) from HCV type 1b. Continued culture of the replicon cells in the presence of G418 (neo^R) is dependent on the replication of the HCV RNA. The stably transfected replicon cells that express HCV RNA, which replicates autonomously and to high levels, encoding inter alia luciferase, are used for screening the antiviral compounds.
The replicon cells were plated in 384 well plates in the presence of the test and control compounds which were added in various concentrations. Following an incubation of three days, HCV replication was measured by assaying luciferase activity (using standard luciferase assay substrates and reagents and a Perkin Elmer ViewLux™ ultraHTS microplate imager). Replicon cells in the control cultures have high luciferase expression in the absence of any inhibitor. The inhibitory activity of the compound on luciferase activity was monitored on the Huh-Luc cells, enabling a dose-response curve for each test compound. EC50 values were then calculated, which value represents the amount of the compound required to decrease by 50% the level of detected luciferase activity, or more specifically, the ability of the genetically linked HCV replicon RNA to replicate.

[4] = molecular target: HCV NS3/4A protease complexes (full-length hepatitis C NS3 protease enzyme with NS4A cofactor) (Hepatitis C virus genotype 1a, UniProt P27958); experiment: Inhibition assay (enzymatic assay, depsipeptide substrate hydrolysis); format: biochemical; settings: enzyme 1 nM, 25 μM NS4A cofactor, 0.5 μM substrate, 30° C., competitive inhibition model
HCV NS3/4A protease complexes (full-length hepatitis C NS3 protease enzyme with NS4A cofactor), sequence (P27958 1027-1657, other chains not shown): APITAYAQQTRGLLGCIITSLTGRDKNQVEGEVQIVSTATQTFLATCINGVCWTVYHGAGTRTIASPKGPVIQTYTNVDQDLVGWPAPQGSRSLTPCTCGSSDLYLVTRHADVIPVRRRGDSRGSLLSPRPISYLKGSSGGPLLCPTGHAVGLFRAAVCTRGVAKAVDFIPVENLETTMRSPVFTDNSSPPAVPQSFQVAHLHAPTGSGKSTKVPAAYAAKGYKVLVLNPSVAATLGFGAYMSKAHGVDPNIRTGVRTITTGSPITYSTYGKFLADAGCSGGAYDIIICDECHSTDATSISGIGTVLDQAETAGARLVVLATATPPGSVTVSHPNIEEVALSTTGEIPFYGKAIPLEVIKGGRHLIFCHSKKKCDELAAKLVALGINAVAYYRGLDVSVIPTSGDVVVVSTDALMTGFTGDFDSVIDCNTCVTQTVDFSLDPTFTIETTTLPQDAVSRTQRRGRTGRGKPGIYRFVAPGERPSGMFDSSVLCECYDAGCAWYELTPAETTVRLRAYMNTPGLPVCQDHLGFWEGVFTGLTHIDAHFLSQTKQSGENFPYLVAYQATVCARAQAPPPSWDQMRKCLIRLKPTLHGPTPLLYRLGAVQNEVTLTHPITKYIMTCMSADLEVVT
Protocol: The aim of this in vitro assay is to measure the inhibition of HCV NS3/4A protease complexes by the compounds of the present invention. This assay provides an indication of how effective compounds of the present invention would be in inhibiting HCV NS3/4A proteolytic activity.
The inhibition of full-length hepatitis C NS3 protease enzyme was measured essentially as described in Poliakov, 2002 Prot Expression & Purification 25 363 371. Briefly, the hydrolysis of a depsipeptide substrate, Ac-DED(Edans)EEAbuψ[COO]ASK(Dabcyl)-NH2 (AnaSpec, San José, USA), was measured spectrofluorometrically in the presence of a peptide cofactor, KKGSVVIVGRIVLSGK (Åke Engström, Department of Medical Biochemistry and Microbiology, Uppsala University, Sweden). [Landro, 1997 #Biochem 36 9340-9348]. The enzyme (1 nM) was incubated in 50 mM HEPES, pH 7.5, 10 mM DTT, 40% glycerol, 0.1% n-octyl-D-glucoside, with 25 μM NS4A cofactor and inhibitor at 30° C. for 10 min, whereupon the reaction was initiated by addition of 0.5 μM substrate. Inhibitors were dissolved in DMSO, sonicated for 30 sec. and vortexed. The solutions were stored at −20° C. between measurements.
The final concentration of DMSO in the assay sample was adjusted to 3.3%. The rate of hydrolysis was corrected for inner filter effects according to published procedures.
[Liu, 1999 Analytical Biochemistry 267 331-335]. Ki values were estimated by non-linear regression analysis (GraFit, Erithacus Software, Staines, MX, UK), using a model for competitive inhibition and a fixed value for Km (0.15 μM). A minimum of two replicates was performed for all measurements.

Work on `CCOC(=O)C12CC1C=CCCCCN(C)C(=O)C1CC(Oc3cc(C(C)(C)C)nc(OC)n3)CC1C(=O)N2` (stereo not drawn) yielded a ring closure, isolated yield ([1]; from C=CCCCCN(C)C(=O)C1CC(Oc2cc(C(C)(C)C)nc(OC)n2)CC1C(=O)NC1(C(=O)OCC)CC1C=C, 1.74 mM) of 74%.
`CCOC(=O)C12CC1C=CCCCCN(C)C(=O)C1CC(Oc3cc(OC)nc(-c4ccccc4)n3)CC1C(=O)N2` (stereo not drawn) gave a ring closure, isolated yield ([1]; from C=CCCCCN(C)C(=O)C1CC(Oc2cc(OC)nc(-c3ccccc3)n2)CC1C(=O)NC1(C(=O)OCC)CC1C=C, 1.69 mM) of 38%.
`CCOC(=O)C12CC1C=CCCCCN(C)C(=O)C1CC(Oc3cc(OC)nc(OC)n3)CC1C(=O)N2` (stereo not drawn) showed a ring closure, isolated yield ([1]; from C=CCCCCN(C)C(=O)C1CC(Oc2cc(OC)nc(OC)n2)CC1C(=O)NC1(C(=O)OCC)CC1C=C, 1.91 mM) of 49%.
Compound `CN1CCCCC=CC2CC2(C(=O)NS(=O)(=O)C2CC2)NC(=O)C2CC(Oc3ccnc(-c4ccccc4)n3)CC2C1=O` (stereo not drawn) [Example 10, Cyclopropanesulfonic acid [13-methyl-2,14-dioxo-17-(2-phenylpyrimidin-4-yloxy)-3,13-diaza-tricyclo[13.3.0.0*4,6*]octadec-7-ene-4-carbonyl]-amide] has a ring closure, yield after HPLC [2] of 16%, an EC50 [3] of over 10 µM and a Ki [4] of over 1 µM.
